Values after ≈ are worked out from the molar mass of the structure shown.
Tests used:
[1] = tested on: Clostridium difficile ATCC700057; test: microbe, parasite or virus in culture; type: cell-based; conditions: for MIC: Clostridioides difficile, ATCC700057, read-out: MIC (ATCC700057)
[2] = tested on: Clostridium perfringens ATCC13124; test: microbe, parasite or virus in culture; type: cell-based; conditions: ATCC13124, read-out: MIC (ATCC13124)
[3] = tested on: Clostridium perfringens clinical isolate (CI); test: microbe, parasite or virus in culture; type: cell-based; conditions: read-out: MIC (CI)
[4] = tested on: Enterococcus faecium; test: MIC by broth microdilution against Enterococcus faecium
[5] = tested on: MDR Enterococcus faecium strain (MDR); test: MIC by broth microdilution against MDR Enterococcus faecium; conditions: read-out: MIC (MDR)
[6] = tested on: MDR Staphylococcus aureus strain (MDR); test: MIC by broth microdilution against MDR Staphylococcus aureus; conditions: read-out: MIC (MDR)
[7] = tested on: MDR Streptococcus pneumoniae strain (MDR); test: MIC by broth microdilution against MDR Streptococcus pneumoniae; conditions: read-out: MIC (MDR)
[8] = tested on: Staphylococcus aureus ATCC29213; test: MIC by broth microdilution against Staphylococcus aureus ATCC29213; conditions: ATCC29213, read-out: MIC (ATCC29213)
[9] = tested on: Streptococcus pneumoniae ATCC49619; test: MIC by broth microdilution against Streptococcus pneumoniae ATCC49619; conditions: ATCC49619, read-out: MIC (ATCC49619)
[10] = tested on: Bacillus subtilis; type: cell-based

| SMILES | MIC [1] [µg/mL] | MIC [2] [µg/mL] | MIC [3] [µg/mL] | MIC [4] [µg/mL] | MIC [5] [µg/mL] | MIC [6] [µg/mL] | MIC [7] [µg/mL] | MIC [8] [µg/mL] | MIC [9] [µg/mL] | selectivity for Clostridium difficile [1] | antibacterial activity against Bacillus subtilis [10] |
| --- | --- | --- | --- | --- | --- | --- | --- | --- | --- | --- | --- |
| Nc1ccc(-c2nc3cc(-c4ccc5[nH]c(-c6ccc(N)nc6)nc5c4)ccc3[nH]2)cn1 [Compound 11, 5,5′-(1H,1′H-5,5′-bibenzo[d]imidazole-2,2′-diyl)dipyridin-2-amine] | < 1 | 17 to 64 (≈ 40.6 to 153 µM) | > 64 | 1 to 16 (≈ 2.39 to 38.2 µM) | 1 to 16 (≈ 2.39 to 38.2 µM) | > 64 | < 1 | > 64 | < 1 |  |  |
| Oc1ccc(-c2nc3cc(-c4ccc5[nH]c(-c6ccc(O)cc6)nc5c4)ccc3[nH]2)cc1 [Compound 3, 4,4′-(1H,1′H-5,5′-bibenzo[d]imidazole-2,2′-diyl)diphenol] | < 1 | 1 to 16 (≈ 2.39 to 38.2 µM) | 1 to 16 (≈ 2.39 to 38.2 µM) | < 1 | < 1 | < 1 | < 1 | < 1 | < 1 |  |  |
| Nc1cccc(-c2nc3cc(-c4ccc5[nH]c(-c6cccc(N)c6)nc5c4)ccc3[nH]2)c1 [Compound 2, 3,3′-(1H,1′H-5,5′-bibenzo[d]imidazole-2,2′-diyl)dianiline] | 1 to 16 (≈ 2.4 to 38.4 µM) | > 64 | > 64 | 1 to 16 (≈ 2.4 to 38.4 µM) | 1 to 16 (≈ 2.4 to 38.4 µM) | > 64 | 1 to 16 (≈ 2.4 to 38.4 µM) | 1 to 16 (≈ 2.4 to 38.4 µM) | 1 to 16 (≈ 2.4 to 38.4 µM) |  |  |
| Cn1c(-c2ccc(N)cc2)nc2ccc(-c3ccc4[nH]c(-c5ccc(N)cc5)nc4c3)cc21 [Compound 4, 4,4′-(3′-methyl-1H,3′H-5,5′-bibenzo[d]imidazole-2,2′-diyl)dianiline] | 17 to 64 (≈ 39.5 to 149 µM) | > 64 | > 64 | 1 to 16 (≈ 2.32 to 37.2 µM) | < 1 | > 64 | 1 to 16 (≈ 2.32 to 37.2 µM) | > 64 | < 1 |  |  |
| Cn1c(-c2ccc(N)cc2)nc2cc(-c3ccc4[nH]c(-c5ccc(N)cc5)nc4c3)ccc21 [Compound 5, 4,4′-(1-methyl-1H,1′H-5,5′-bibenzo[d]imidazole-2,2′-diyl)dianiline] | 1 to 16 (≈ 2.32 to 37.2 µM) | 1 to 16 (≈ 2.32 to 37.2 µM) | 1 to 16 (≈ 2.32 to 37.2 µM) | < 1 | < 1 | 1 to 16 (≈ 2.32 to 37.2 µM) | < 1 | 1 to 16 (≈ 2.32 to 37.2 µM) | < 1 |  |  |
| COc1ccc(-c2nc3cc(-c4ccc5[nH]c(-c6ccc(OC)cc6)nc5c4)ccc3[nH]2)cc1 [Compound 7, 2,2′-bis(4-methoxyphenyl)-1H,1′H-5,5′-bibenzo[d]imidazole] | < 1 | < 1 | < 1 | < 1 | < 1 | < 1 | < 1 | < 1 | < 1 |  |  |
| Nc1ccc(-c2nc3cc(-c4ccc5[nH]c(-c6ccccc6)nc5c4)ccc3[nH]2)cc1 [Compound 9, 4-(2′-phenyl-1H,1′H-5,5′-bibenzo[d]imidazol-2-yl)aniline] | 1 to 16 (≈ 2.49 to 39.9 µM) | 17 to 64 (≈ 42.3 to 159 µM) | 1 to 16 (≈ 2.49 to 39.9 µM) | < 1 | < 1 | 1 to 16 (≈ 2.49 to 39.9 µM) | < 1 | 1 to 16 (≈ 2.49 to 39.9 µM) | < 1 |  |  |
| Nc1ccc(-c2nc3cc(-c4ccc5nc(-c6ccc(N)cc6)[nH]c5c4)ccc3[nH]2)cc1 [Compound 1, 4,4′-(1H,3′H-5,5′-bibenzo[d]imidazole-2,2′-diyl)dianiline] | < 1 | < 1 | < 1 | < 1 | < 1 | < 1 | < 1 | < 1 | < 1 |  |  |
| COc1ccc(-c2nc3ccc(-c4ccc5[nH]c(-c6ccccc6)nc5c4)cc3[nH]2)cc1 [Compound 10, 2′-(4-methoxyphenyl)-2-phenyl-1H,3′H-5,5′-bibenzo[d]imidazole] | < 1 | 1 to 16 (≈ 2.4 to 38.4 µM) | < 1 | < 1 | < 1 | < 1 | < 1 | < 1 | < 1 |  |  |
| CNc1ccc(-c2nc3cc(-c4ccc5[nH]c(-c6ccc(NC)cc6)nc5c4)ccc3[nH]2)cc1 [Compound 6, 4,4′-(1H,1′H-5,5′-bibenzo[d]imidazole-2,2′-diyl)bis(N-methylaniline)] | 1 to 16 (≈ 2.25 to 36 µM) | 1 to 16 (≈ 2.25 to 36 µM) | 1 to 16 (≈ 2.25 to 36 µM) | < 1 | < 1 | < 1 | < 1 | < 1 | < 1 |  |  |
| Nc1ccc(-c2nc3cc(-c4ccc5[nH]cnc5c4)ccc3[nH]2)cc1 [Compound 8, 4-(1H,1′H-5,5′-bibenzo[d]imidazol-2-yl)aniline] | 1 to 16 (≈ 3.07 to 49.2 µM) | 17 to 64 (≈ 52.2 to 197 µM) | 1 to 16 (≈ 3.07 to 49.2 µM) | 1 to 16 (≈ 3.07 to 49.2 µM) | 1 to 16 (≈ 3.07 to 49.2 µM) | 17 to 64 (≈ 52.2 to 197 µM) | 1 to 16 (≈ 3.07 to 49.2 µM) | 1 to 16 (≈ 3.07 to 49.2 µM) | 1 to 16 (≈ 3.07 to 49.2 µM) |  |  |
| c1cc(-c2nc3cc(-c4ccc5[nH]c(-c6ccncc6)nc5c4)ccc3[nH]2)ccn1 [Compound 12, 2,2′-di(pyridin-4-yl)-1H,1′H-5,5′-bibenzo[d]imidazole] | < 1 | > 64 | > 64 | > 64 | > 64 | > 64 | < 1 | > 64 | < 1 | highly selective for Clostridium difficile | no significant antibacterial activity |

— patent US9763925B2, “Antibacterial compounds” (SUMMIT THERAPEUTICS PLC, priority 2008, dated 2017)
